“And” between values parts separate entries of the source, which are not always exact repeats. Equal entries are not always repeated. Where two headings read alike, the source gives them in different places. Marks after values point to notes of the source that are not given here.
Legend:
Assay type in all cases: cell-based
MDCK cells = assay: MTT cytotoxicity assay on MDCK cells; conditions: 100 µmol/L, 24 h incubation, mean ± SD of three replicates; for inhibition at 100 µM: Canis lupus familiaris, read-out: Growth Inhibition Rate (%)
Protocol: First, we used the MTT method to examine the cytotoxicity of the compounds (1–12) on MDCK cells at a concentration of 100 µmol/L, and the results are shown in Table 5.
Each compound was evaluated for cytotoxicity on DMCK cells using MTT assays. A 96-well plate containing 1 × 10^4 cells per well was seeded with logarithmic growth-phase DMCK cells, which were then cultured for 24 h in a cell culture incubator. After that, the culture medium was changed to one that included medication (100 µmol/L for the treatment groups, 100 µmol/L for the control group, or 100 µmol/L for the positive control group). In total, 100 µL of the appropriate solution was added to each well, and they were then incubated for a further 24 h. After that, culture media were taken out and changed for a DMEM solution that included 20 µL of MTT (5 mg/mL). After incubating for 4 h, the liquid in each well was removed and replaced with 150 µL of DMSO, which was shaken for 10 min to ensure thorough mixing. The absorbance at 490 nm was measured to determine the optical density (OD) of each well. The cell growth inhibition rate was calculated as follows: cell growth inhibition rate (%) = (ODBlank − ODExperimental)/ODBlank × 100%.

[1] = test system: Na^+ transport in MDCK cells; assay: In vitro diuretic activity assay: Na+ transport across MDCK cells in Transwell chamber; conditions: for inhibition at 100 µM: Canis lupus familiaris; for inhibition at 100 µM / Transport Inhibition Rate (%) Na^+: compounds 100 µmol/L, hydrochlorothiazide 200 µmol/L, mean ± SD of three replicates; for Diuretic activity (overall, in words): in vitro Na^+ and Cl^− transport bioassays
Protocol: (§1) Generally, the transport of Na^+ and Cl^− plays an essential role in glomerular filtration and tubular reabsorption.
(§2) Log-phase MDCK cells were seeded in the upper chambers of Transwell plates (4 × 10^4 cells/well), and 800 µL of complete culture medium was added to the lower chambers. After 24 h of incubation at 37 ℃, the electrical resistance of the upper chamber cells was measured one by one (R = (Rcell − Rblank) × 0.04π). When the electrical resistance of the upper chamber cells reached ≥ 300 Ω cm^2, the upper chamber medium was removed and replaced with the drug solution. The blank group (given normal saline), experimental group (1, 4–12, 100 µmol/L), and hydrochlorothiazide group (200 µmol/L) were set, and each well was treated with 200 µL of the corresponding solution. The cells were then further incubated for 24 h. After that, the upper and lower chamber fluids were removed, and 200 µL of NaCl solution (21 mg/mL) was added to the upper chamber, while 800 µL of DMEM was added to the lower chamber for continued incubation. At 1, 2, and 3 h, 50 µL of the lower chamber fluid was taken, and the OD values were measured using Na^+ and Cl^− detection kits. The transport inhibition rate (%) was calculated as follows: transport inhibition rate (%) = (ODblank − ODexperimental)/ODblank × 100%.

[2] = test system: Cl^− transport in MDCK cells; assay: In vitro diuretic activity assay: Cl− transport across MDCK cells in Transwell chamber; conditions: for inhibition at 100 µM: Canis lupus familiaris, read-out: Transport Inhibition Rate (%) Cl^−; for Inhibitory activity on Cl^− transport compared to blank group (in words): 100 µmol/L, significance vs blank group
Protocol: as §1, §2

[3] = MDCK Transwell, read-out: Transport Inhibition Rate (%) Na^+
[4] = MDCK Transwell, compounds 100 µmol/L, hydrochlorothiazide 200 µmol/L, mean ± SD of three replicates
[5] = MDCK, read-out: Transport Inhibition Rate (%) Na^+, MDCK Transwell

Compound: Cc1cc(O)ccc1O[C@H]1O[C@@H](CO)[C@H](O)[C@@H](O[C@H]2O[C@@H](CO)[C@H](O)[C@@H](O)[C@@H]2O)[C@@H]1O [Compound 1, 3′-O-β-D-glucopyranosyl-isohomoarbutin]
- inhibition at 100 µM (MDCK cells): 4.89 ± 0.05%
- inhibition at 100 µM [1, 3]: -11.7 ± 1.14%
- inhibition at 100 µM [2, 4]: 9.44 ± 0.78%

Compound: O=c1c(O[C@@H]2O[C@H](CO)[C@@H](O)[C@H](O)[C@H]2O)c(-c2ccc(O)c(O)c2)oc2cc(O)cc(O)c12 [Compound 9, isoquercitrin]
- inhibition at 100 µM (MDCK cells): < 0%
- inhibition at 100 µM [1, 5]: 6.22 ± 0.53%
- inhibition at 100 µM ([2]; MDCK): -8.36 ± 2.6%

Compound: (1R,3R,4R)-3-methylcyclohexanol β-D-glucopyranoside [Compound 4]
- Growth Inhibition Rate (%) (MDCK cells): 4.89 ± 0.05%
- Transport Inhibition Rate (%) Na^+ ([1]; MDCK Transwell): higher than 20% and 21.13 ± 0.89 ^e %
- Diuretic activity (overall, in words) [1]: potent diuretic activity
- Transport Inhibition Rate (%) Cl^− [2, 4]: 12.23 ± 0.18 ^e %

Compound: Cc1cc(O)ccc1O[C@@H]1O[C@H](CO)[C@@H](O)[C@H](O)[C@H]1O [Compound 6, isohomoarbutin]
- inhibition at 100 µM (MDCK cells): < 0%
- inhibition at 100 µM [1, 3]: 10.2 ± 1.24%
- inhibition at 100 µM [2, 4]: 12.2 ± 1.33%

Compound: O=c1c(O[C@@H]2O[C@H](CO)[C@H](O)[C@H](O)[C@H]2O)c(-c2ccc(O)c(O)c2)oc2cc(O)cc(O)c12 [Compound 10, hyperoside]
- inhibition at 100 µM (MDCK cells): < 0%
- inhibition at 100 µM [1, 5]: 1.82 ± 0.81%
- inhibition at 100 µM ([2]; MDCK): -13.2 ± 1.89%

Compound: C/C(=C\Cc1c(O)ccc(O[C@H]2O[C@@H](CO)[C@H](O)[C@@H](O)[C@@H]2O)c1C)CO [Compound 5, 3-[(E)-4-hydroxy-3-methyl-2-butenyl]-4-hydroxy-2-methylphenyl-O-β-D-glucopyranoside]
- inhibition at 100 µM (MDCK cells): 4.08 ± 0.03%
- inhibition at 100 µM [1, 3]: 7.61 ± 0.71%
- Inhibitory activity on Cl^− transport compared to blank group (in words) [2]: good inhibitory activity
- inhibition at 100 µM [2, 4]: 4.57 ± 0.65%

Compound: Cc1cc(O)ccc1O[C@H]1O[C@@H](CO)[C@H](O[C@H]2O[C@@H](CO)[C@H](O)[C@@H](O)[C@@H]2O)[C@@H](O)[C@@H]1O [Compound 2, 4′-O-β-D-glucopyranosyl-isohomoarbutin]
- inhibition at 100 µM (MDCK cells): 29.48 ± 0.12%

Compound: O=c1c(O[C@@H]2O[C@@H](CO)[C@H](O)[C@H]2O)c(-c2ccc(O)cc2)oc2cc(O)cc(O)c12 [Compound 12, juglanin]
- inhibition at 100 µM (MDCK cells): < 0%
- inhibition at 100 µM [1, 5]: 14.2 ± 0.69%
- Inhibitory activity on Cl^− transport compared to blank group (in words) [2]: general inhibitory activity
- inhibition at 100 µM ([2]; MDCK): 3.27 ± 0.31%

Compound: O=c1c(O)c(-c2ccc(O)cc2)oc2cc(O)cc(O)c12 [Compound 11, kaempferol]
- inhibition at 100 µM (MDCK cells): < 0%
- Na^+ transport suppression rate at 3 h compared with hydrochlorothiazide (in words) ([1]; 3 h, Figure 3): exceeds that of hydrochlorothiazide
- inhibition at 100 µM [1, 5]: > 20%
- Transport Inhibition Rate (%) Na^+ ([1]; MDCK Transwell): 28.81± 1.04 ^e %
- Diuretic activity (overall, in words) [1]: potent diuretic activity
- inhibition at 100 µM ([2]; MDCK): 27.7 ± 1.18%

Compound: NS(=O)(=O)c1cc2c(cc1Cl)NCNS2(=O)=O [Hyd, hydrochlorothiazide, reference compound]
- inhibition at 100 µM (MDCK cells): < 0%
- Na^+ transport inhibition rate at 1 h ([1]; Figure 3): 27.91%
- Transport Inhibition Rate (%) Na^+ ([1]; MDCK Transwell): 39.74 ± 0.64 ^e %
- Transport Inhibition Rate (%) Cl^− [2, 4]: 23.42 ± 0.87 ^e %

Compound: C[C@@H]1O[C@@H](Oc2c(-c3ccc(O)c(O)c3)oc3cc(O)cc(O)c3c2=O)[C@H](O)[C@H](O)[C@H]1O [Compound 8, quercitrin]
- inhibition at 100 µM (MDCK cells): < 0%
- inhibition at 100 µM [1, 5]: 18.5 ± 1.02%
- inhibition at 100 µM ([2]; MDCK): 0.65 ± 1.45%

Compound: Cc1cc(O)c(-c2cc(O[C@@H]3O[C@H](CO)[C@@H](O)[C@H](O)[C@H]3O)c(C)cc2O)cc1O[C@@H]1O[C@H](CO)[C@@H](O)[C@H](O)[C@H]1O [Compound 3, 5-5′-dehydro-di (2-methyl-4-hydroxy-phenyl-1-O-β-D-glucopyranoside)]
- inhibition at 100 µM (MDCK cells): 23.31 ± 0.13%

Compound: O=c1c(O)c(-c2ccc(O)c(O)c2)oc2cc(O)cc(O)c12 [Compound 7, quercetin]
- inhibition at 100 µM (MDCK cells): < 0%
- Na^+ transport inhibition rate at 1 h ([1]; Figure 3): more than 30.24%
- inhibition at 100 µM [1, 5]: > 20%
- Transport Inhibition Rate (%) Na^+ ([1]; MDCK Transwell): 35.95 ± 1.42 ^e %
- Diuretic activity (overall, in words) [1]: potent diuretic activity
- inhibition at 100 µM ([2]; MDCK): 20.7 ± 0.74%
- Cl^− transport inhibition rate at peak, second hour ([2]; second hour (peak), Figure 4): higher than 20%

— publication PMC10934158, “Constituents of Chimaphila japonica and Their Diuretic Activity” (Molecules, 2024)
